Like-named read-outs stand apart in the source and are kept apart here.
Tests used:
[1] = system: HD (Q111/Q111) striatal cells; assay: Western blot analysis of SETDB1 protein and H3K9me3 level in HD (Q111) cells; type: cell-based; conditions: HD (Q111) cell
Procedure: Cells were homogenised with Dounce homogeniser in […] of phosphate-buffered saline containing 0.4 mM sodium butyrate, 5% Triton X-100, 3 mM DTT, 1 mM sodium orthovanadate, 5 mM sodium fluoride, 3 mM PMSF, 3 mM DTT, 0.5 mg/ml leupeptin, and 10 mg/ml aprotinin as previously described. The nuclear pellets were collected and washed twice with the above-described 5% Triton buffer. Histones were extracted by solubilising in […] of 0.2 M HCl on a shaker for 2 h. After neutralising the pH of the acid-extracted solution containing the histone pool with ammonium acetate, the protein content was quantified. Each histone extract (an amount of […]) was placed onto each well of the dot blot apparatus pre-assembled with a nitrocellulose membrane and vacuumed for 30 min. After releasing the vacuum, the nitrocellulose membrane was removed and washed twice with TBS-T for 5 min. Then, the nitrocellulose membrane was blocked with 5% milk/TBS-T for 30 min and subsequently incubated with primary antibody in 5% milk/TBS-T for 24 h at cold room. The nitrocellulose membrane was washed twice with TBS-T for 5 min and incubated with secondary antibody in 1% milk (15 ml) for one hour at room temperature. After washing the membrane twice with TBS-T for 5 min, the immune reactivity was developed with Chemiluminescent Kit. […]

[2] = system: HD (Q111/Q111) striatal cells; assay: Confocal microscopy of H3K9me3 immunoreactivity in HD cells; type: cell-based
Procedure: Immunofluorescence staining and confocal microscopy was used to determine the trimethylated-histone H3 (Lys9) (H3K9me3) (Millipore, Billerica, MA) (1:1000). The procedures were performed as previously described. The specimens were incubated for 1 h with Alexa Fluor 594 goat anti-rabbit antibody (abcam, Cambridge, UK; 1:400) after incubation of the primary antibody. Images were analysed using an A1 Nikon confocal laser scanning microscope (Nikon, Tokyo, Japan).
Moreover, the promoter assay was carried out.

[3] = system: YAC128 mice; assay: Rotarod test in HD transgenic (YAC128) mice; type: in vivo, mouse; conditions: i.p. five times a week, after 4 weeks, vs vehicle treated YAC128 mice
Procedure: YAC128 mice were bred with females from their background strain (B6CBAFI/J), and offspring were genotyped using PCR as previously described. All mice were weighed at 3 weeks of age and equally distributed according to weight and percentage within each cohort. […] The biochemical and behavioural/neuropathological symptoms of mice were determined after 4 weeks of drug administration. These procedures were performed in accordance with Guide for the Care and Use of Laboratory Animals guidelines. The animal protocol was approved by IACUC (Institutional Animal Care and Use Committee) in Hanyang University, Ansan, Republic of Korea.

[4] = biological target: SETDB1 enzyme (Homo sapiens, UniProt Q15047); assay: biochemical
Procedure: SETDB1 enzyme activity was analysed using commercially available SETBD1 chemiluminescent assay kit (BPS Bioscience, San Diego, CA, #51056) according to the manufacturer’s instructions. All analyses were performed in duplicates and all reagents used are supplied in the kit. […] Total 50 µL mixture of histone methylation transfer buffer (50 mM Tris–HCl, pH 9.0, 1 mM phenylmethylsulfonyl fluoride, and 0.5 mM dithiothreitol) containing 20 µM SAM, each concentration of inhibitors and 1.25 ng/µL SETDB1 enzyme was added to each well of a 96-well plate. The wells were pre-coated with histone H3 peptide substrate. Reactions were allowed to proceed for 1 h 30 min at room temperature. Methylated K9 residue of H3 peptide was detected with anti-methylated H3K9 primary antibody and HRP-conjugated secondary antibody. Chemiluminescence resulting from the reaction between the HRP-conjugated secondary antibody and the added HRP substrate was measured using a SpectraMax M2 plate reader (Molecular Devices, Sunnyvale, CA).
The inhibitory activity at each concentration was recorded by detecting chemiluminescence signal after treatment of H3K9 antibody followed by addition of the HRP substrate.

[5] = system: STHdhQ7/7 (wild type) cells; assay: Cell viability MTT assay; type: cell-based; conditions: 24 h, concentration range 1–100 µM
Procedure: Cell viability was quantified using MTT assay (Sigma, St. Louis, MO, M2128). In brief, cells were cultured in each well of 96-well plates with varying concentrations of compounds for 24 h. Following incubation of cells in each well with MTT (0.5 mg/ml) for 4 h, the culture supernatant was discarded. Cells were washed with PBS three times, and the insoluble formazan product dissolved in DMSO. The optical density (OD) of each culture well was measured using as ELISA reader at 570 nm. The OD570 in control cells was taken as 100% viability.
Next, we evaluated the inhibitory activity of our compound against SETDB1 enzyme by comparing with a well-known methyltransferase inhibitor […] using chemo-luminescence assay (Figure S1a).

[6] = Pharmacokinetics after intravenous and oral administration to SD rats; type: in vivo, Sprague-Dawley (SD) male rats; conditions: rat, 10 mg/kg; for Kp at 2 h: brain/plasma, read-out: Brain-to-plasma (B/P) ratio at 2 h; for half-life: read-out: Terminal half-life
Source text: It is well known that the blood–brain barrier (BBB) is a key obstacle impeding the entry of drugs into the brain.

[7] = male, Sprague-Dawley, plasma, intravenous
[8] = male, Sprague-Dawley, plasma, oral
[9] = male, Sprague-Dawley, intravenous, plasma
[10] = male, Sprague-Dawley, oral, plasma

C=CCOc1cccc2nc(N3CCCC3)ccc12 [APQ, 5-allyloxy-2-(pyrrolidin-1-yl)quinoline]
H3K9me3 level [1]: reduced | SETDB1 protein levels ([1]; dose-dependent): significantly decreased | H3K9me3 immunoreactivity [2]: considerably decreased | motor behaviour (rotarod test) [3]: significantly improved | IC50 [4]: 65 µM | cytotoxicity (cell viability, MTT) [5]: did not show any cytotoxicity | Kp at 2 h ([6]; male, Sprague-Dawley, intravenous): 4.18 | Kp at 2 h ([6]; male, Sprague-Dawley, oral): 0.44 | concentration at 2 h ([6]; male, Sprague-Dawley, brain, intravenous, read-out: Brain concentration at 2 h): 407 ng/mL | concentration at 2 h ([6]; male, Sprague-Dawley, brain, oral, read-out: Brain concentration at 2 h): 3.7 ± 1.1 ng/mL | MRT [6, 7]: 1.6 h | clearance [6, 7]: 183 ± 26.1 mL/min/kg | concentration at 8 h [6, 7]: 20 ng/mL | concentration at 2 h ([6]; male, Sprague-Dawley, plasma, intravenous, read-out: Plasma concentration at 2 h): 100 ng/mL | half-life [6, 7]: 2.55 ± 0.101 h | Vd ([6]; male, Sprague-Dawley, plasma, intravenous, read-out: Vss): 25.6 ± 5.2 L/kg | bioavailability ([6]; male, Sprague-Dawley, plasma, oral vs intravenous, read-out: F (bioavailability)): 6.7% | Cmax [6, 8]: 40 ± 10 ng/mL | concentration at 8 h [6, 8]: 0 ng/mL | Tmax ([6]; male, Sprague-Dawley, plasma, oral, median (range)): 1 h | concentration at 2 h ([6]; male, Sprague-Dawley, plasma, oral, read-out: Plasma concentration at 2 h): 10 ng/mL | half-life [6, 8]: 1.58 ± 0.223 h | AUC(0-inf) [6, 9]: 923 ng·h/mL | AUC(0-t) [6, 9]: 858 ng·h/mL | AUC(0-inf) [6, 10]: 61.7 ng·h/mL | AUC(0-t) [6, 10]: 60.7 ng·h/mL | Ae (excreted amount) ([6]; intravenous): 0.00% | Brain concentration at 2 h ([6]; intravenous): 406.6 ± 81.3 ng/mL | Plasma concentration at 2 h ([6]; intravenous): 100 ± 10 ng/mL | Ae (excreted amount) ([6]; oral): 0.00%

Reference: publication PMC8008885 (Journal of Enzyme Inhibition and Medicinal Chemistry, 2021)
